From patent US5576355A, “Diamondoid derivatives for pharmaceutical use” (priority 1993, dated 1996)
“Also recorded” adds a separate entry of the source. Where two headings read alike, the source gives them in different places.

Key:
[1] = tested on: HIV-1/MN; assay: Anti-HIV assay (MTT, protection from cytopathic effect), pre- or post-infection, HIV-1/MN; type: cell-based; for MN Post-Infection: key: ++++: significant and reproducible inhibition of cytopathic effect; +++: significant and reproducible inhibition of cytopathic effect; +: noticeable but minimal protection; ---: no protective effect was observed; --: no protective effect was observed; -: no protection was observed but some changes in the cell culture occurred
[2] = tested on: HIV-1/MN; assay: Virus neutralization assay (MTT), HIV-1MN; type: cell-based; for MN Neutralization: key: ++++: significant and reproducible inhibition of cytopathic effect; +++: significant and reproducible inhibition of cytopathic effect; +: noticeable but minimal protection; ---: no protective effect was observed; --: no protective effect was observed; -: no protection was observed but some changes in the cell culture occurred
[3] = tested on: MT-2 cells; assay: MTT dye reduction cytotoxicity assay, 5 days
Procedure: The MT-2 cell line was grown and maintained in RPMI 1640 containing 10% fetal calf serum and antibiotics.
Precisely, when the MT-2 cells were in log phase and 2×10^4 cells were distributed in each well along with separate 100 μl aliquots of diluted test compounds. The test compounds were soluble in ethyl alcohol (EtOH). Ethanol and medium were incubated in some wells with the cells as an ethanol control. A cell control was also included (wells containing only cells and medium). The plates were incubated for 5 days at 37° C. in 5% CO2 and humidified conditions. Cell viability was determined in each well by the MTT assay. The OD570 (optical density at 570 nm) of cells without test compound was taken as 0% killing and was compared to the OD570 of cells with test compound. The toxicity profile for different compounds was then scored. In the MTT dye reduction assay toxicity was indicated as yellow in the wells, with blue color indicating the compound was non-toxic.

[4] = tested on: HIV-1; assay: Anti-HIV testing under the rigorous conditions of the examples (strain not stated); conditions: high virus load, words
[5] = tested on: Influenza Viruses; conditions: cited from earlier work
[6] = tested on: HIV-1MN induced syncytia; assay: Syncytia inhibition, HIV-1MN
[7] = tested on: VP6 primary HIV isolate; assay: Anti-HIV assay (MTT), pre- or post-infection, VP6 isolate; conditions: words
[8] = tested on: AZT resistant strain (AZTR) of HIV-1; assay: Anti-HIV assay (MTT), pre- or post-infection, AZT resistant strain; conditions: words
[9] = HIV-1/MN, virus pre-mixed with compound 1 hour

SMILES: O[C@@H]1[C@@H]2C[C@H]3C[C@@H](C2)C2(OCCO2)[C@@H]1C3 (relative stereo) [Compound 8, 4(e)-hydroxy-2-adamantanone ethylene glycol ketal]
- MN Post-Infection [1]: -
- effect in pre-infection (pretreatment) assay [1]: effective
- effect in neutralization assay [2]: effective
- Toxicity at 5 μg/ml [3]: -
- Toxicity at 50 μg/ml [3]: -
- Toxicity at .5 μg/ml [3]: -

SMILES: O=C1C2CC3CC(C2)CC1C3 [2-adamantanone, reference compound]
- activity under the rigorous testing conditions [4]: ineffective

SMILES: O=C1C2CC3CC1CC(O)(C3)C2 [5-hydroxy-2-adamantanone]
- activity under the rigorous testing conditions [4]: ineffective

SMILES: NC12CC3CC(CC(C3)C1)C2 [Amantadine]
- concentration at which viral entry into the cell is non-specifically inhibited ([5]; altering the pH of the endocytic vesicle): > 0.5 mM
- concentration of selective strain-specific inhibition of virus assembly ([5]; lower concentration): about 5 μM

SMILES: OC12CC3(O)CC(O)(C1)CC(O)(C2)C3 [Compound 1, 1,3,5,7-tetrahydroxyadamantane]
- MN Post-Infection ([1]; HIV-1/MN, post-infection): +++
- effect in both pre-infection and post-infection assays ([1]; HIV-1MN, words): effective
- effect in pre-infection (pretreatment) assay ([1]; MN, pre-infection, words): effective
- effect in post-infection assay ([1]; post-infection, words): effective
- effect in neutralization assay ([2]; neutralization, words): effective
- Toxicity at 5 μg/ml [3]: -
- Toxicity at 50 μg/ml [3]: -
- Toxicity at 500 μg/ml [3]: -
- Toxicity at .5 μg/ml [3]: -

SMILES: CC12CC3(C)CC(O)(C1)CC(O)(C2)C3 [Compound 2, 1,3-dihydroxy-5,7-dimethyladamantane]
- MN Post-Infection ([1]; HIV-1/MN, post-infection): +++
- effect in both pre-infection and post-infection assays ([1]; HIV-1MN, words): effective
- effect in pre-infection (pretreatment) assay ([1]; MN, pre-infection, words): effective
- effect in post-infection assay ([1]; post-infection, words): effective
- effect in neutralization assay ([2]; neutralization, words): effective
- Toxicity at 5 μg/ml [3]: -
- Toxicity at 50 μg/ml [3]: -
- Toxicity at .5 μg/ml [3]: -

SMILES: C[N+](C)(C)CCC[N+](C)(C)C1C2CC3C4CC5CC3C1C(C5)C4C2 (stereo not shown) [Compound 3, N-3-diamantyl-N,N,N',N',N'-pentamethyl propane-1,3-bis ammonium diiodide]
- MN Post-Infection ([1]; HIV-1/MN, post-infection): +++
- effect in both pre-infection and post-infection assays ([1]; HIV-1MN, words): effective
- effect in pre-infection (pretreatment) assay ([1]; MN, pre-infection, words): effective
- effect in post-infection assay ([1]; post-infection, words): effective
- MN Neutralization [2, 9]: +++
- effect in neutralization assay ([2]; neutralization, words): effective
- Toxicity at 5 μg/ml [3]: -
- Toxicity at 50 μg/ml [3]: -
- Toxicity at .5 μg/ml [3]: -

SMILES: C[N+](C)(C)CC[N+](C)(C)C1C2CC3CC(C2)CC1C3 (stereo not shown) [Compound 4, N-2-adamantyl-N,N,N',N',N'-pentamethyl ethane-1,2-bis ammonium diiodide]
- Toxicity at 5 μg/ml [3]: -
- Toxicity at 50 μg/ml [3]: -
- Toxicity at 500 μg/ml [3]: -
- Toxicity at .5 μg/ml [3]: -

SMILES: O=C(O)CNC1C2CC3CC(C2)CC1C3 (stereo not shown) [Compound 5, N-2-adamantyl glycine]
- MN Pre-Infection ([1]; HIV-1/MN, cells pretreated 1 hour): -
- MN Post-Infection ([1]; HIV-1/MN, post-infection): +++
- effect in post-infection assay ([1]; post-infection, words): effective
- MN Neutralization [2, 9]: -
- Toxicity at 5 μg/ml [3]: -
- Toxicity at 50 μg/ml [3]: -
- Toxicity at 500 μg/ml [3]: -
- Toxicity at .5 μg/ml [3]: -

SMILES: O=C1C2CC3C4CC5CC3C1C(C5)C4C2 [Compound 6, 3-diamantanone]
- inhibition of HIV-1MN induced syncytia at 10 μg/ml ([6]; 10 μg/ml, FIG. 2): completely inhibit
- MN Post-Infection [1]: ++++
- MN Pre-Infection [1]: +++
- effect in both pre-infection and post-infection assays [1]: effective; also recorded: active
- effect in post-infection assay [1]: effective
- effect in pre-infection (pretreatment) assay [1]: effective
- inhibition of virus replication, VP6 clinical isolates ([7]; both pre- and post-infection): inhibited virus replication
- inhibition of clinical isolates [7]: shown to inhibit
- inhibition of virus replication, AZT resistant strains ([8]; both pre- and post-infection): inhibited virus replication
- inhibition of AZT resistant isolates [8]: shown to inhibit
- MN Neutralization [2]: +++
- effect in neutralization assay [2]: effective; also recorded: active
- Toxicity at 5 μg/ml [3]: -
- Toxicity at 50 μg/ml [3]: -
- Toxicity at .5 μg/ml [3]: -

SMILES: O=C1C2CC3CC(C2)C(=O)C1C3 [Compound 7, 2,4-adamantanedione]
- inhibition of syncytia formation ([6]; concentration not given): substantially eliminate syncytia formation
- MN Post-Infection ([1]; HIV-1/MN, post-infection): -
- effect in pre-infection (pretreatment) assay ([1]; MN, pre-infection, words): effective; also recorded: inhibited viral cytopathic effect
- pretreatment compared with post-infection treatment ([1]; words): pretreatment is more effective than post-infection treatment
- inhibition of CPE of HIV, VP6 isolate ([7]; pre-infection): inhibited CPE of HIV
- inhibition of clinical isolates [7]: shown to inhibit
- inhibition of CPE of HIV, AZT resistant isolate ([8]; pre-infection): inhibited CPE of HIV
- inhibition of AZT resistant isolates [8]: shown to inhibit
- effect in neutralization assay ([2]; neutralization, words): effective
- Toxicity at 5 μg/ml [3]: -
- Toxicity at 50 μg/ml [3]: -
- Toxicity at 500 μg/ml [3]: -
- Toxicity at .5 μg/ml [3]: -

SMILES: C[N+](C)(C)CCC[N+](C)(C)C1C2CC3CC(C2)CC1C3 (stereo not shown) [N-(2-adamantyl)-N,N,N',N',N'-pentamethyl-propane-1,3-bis ammonium diodide]
- activity under the rigorous testing conditions [4]: ineffective

SMILES: O=C1C2CC3CC1CC(C2)C3=O [adamantane-2,6-dione]
- activity under the rigorous testing conditions [4]: ineffective

SMILES: O=C1C2CC3C4CC5CC3C(C2=O)C(C5)C14 [diamantane-3,5-dione]
- activity under the rigorous testing conditions [4]: ineffective
